Laboratory results reported in US10000791B2, “Measurement method for human pancreatic lipase activity” (ASAHI KASEI PHARMA CORPORATION, priority 2013, dated 2018).

Legend:
human pancreatic lipase [1] = target: T1, human pancreatic lipase (Homo sapiens, UniProt P16233); test: lipase activity measured in control, normal and heparin-administered samples with each reagent (1,2-dioleoyl glycerol, UV method; Liquitech Lipase Color II for verification); format: biochemical; conditions: Recombinant pancreatic lp-containing serum
T1 construct: As a sample, pooled serum or a control sample (a control containing a pancreatic lipase) was used; from tissue; host or cells: human serum (pooled serum, normal samples, heparin-administered samples) and control sera
T1 sequence (P16233 17-465): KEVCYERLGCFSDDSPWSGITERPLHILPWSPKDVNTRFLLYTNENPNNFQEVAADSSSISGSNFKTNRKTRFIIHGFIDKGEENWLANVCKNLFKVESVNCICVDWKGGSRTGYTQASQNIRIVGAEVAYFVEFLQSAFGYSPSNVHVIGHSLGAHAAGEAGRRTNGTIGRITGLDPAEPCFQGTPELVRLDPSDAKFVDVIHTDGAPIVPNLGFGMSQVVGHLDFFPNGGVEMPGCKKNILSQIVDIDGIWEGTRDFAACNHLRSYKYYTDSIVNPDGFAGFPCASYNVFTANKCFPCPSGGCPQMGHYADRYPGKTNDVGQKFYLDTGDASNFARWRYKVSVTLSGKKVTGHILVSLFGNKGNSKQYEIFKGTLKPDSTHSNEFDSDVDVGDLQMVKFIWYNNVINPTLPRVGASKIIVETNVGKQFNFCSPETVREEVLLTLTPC

human pancreatic lipase [2] = test: pH dependence of human pancreatic lipase activity in the presence of bile acids (diglyceride substrate, UV method); format: biochemical; conditions: pH 7.2

Row | lipase activity (Table 3) (human pancreatic lipase [1]; pH 6.2) [U/L] | lipase activity (Table 3) (human pancreatic lipase [1]; pH 6.4) [U/L] | lipase activity (Table 3) (human pancreatic lipase [1]; pH 6.6) [U/L] | lipase activity (Table 3) (human pancreatic lipase [1]; pH 6.9) [U/L] | lipase activity (Table 3) (human pancreatic lipase [1]; pH 7.2) [U/L] | lipase activity (Table 3) (human pancreatic lipase [1]; pH 7.4) [U/L] | lipase activity (Table 3) (human pancreatic lipase [1]; pH 7.6) [U/L] | proportion of the bile acid to the substrate for attaining the maximum lipase activity (human pancreatic lipase [2]; substrate concentration 1.40 mmol/L) | proportion of the bile acid to the substrate for attaining the maximum lipase activity (human pancreatic lipase [2]; substrate concentration 1.63 mmol/L) | SMILES | lipase activity (Table 5) (human pancreatic lipase [1]; pH 7.0) [U/L] | lipase activity (Table 5) (human pancreatic lipase [1]; pH 7.95) [U/L]
1 | – | – | – | – | – | – | – | – | – | C[C@H](CCC(=O)NCC(=O)[O-])[C@H]1CC[C@H]2[C@@H]3[C@H](O)C[C@@H]4C[C@H](O)CC[C@]4(C)[C@H]3CC[C@]12C.[Na+] [NaGCDCA, sodium glycochenodeoxycholate] | 166.1 | 72.4
2 | 180.8 | 184.7 | 211.9 | 233.1 | 229.8 | 217.3 | 168.8 | about 17 | about 15 | C[C@H](CCC(=O)NCCS(=O)(=O)[O-])[C@H]1CC[C@H]2[C@@H]3CC[C@@H]4C[C@H](O)CC[C@]4(C)[C@H]3C[C@H](O)[C@]12C.[Na+] [NaTDCA, sodium taurodeoxycholate] | – | –
